Source: the supplement of paper PMC10307832

What was measured:
Assay in all cases: relative viability (nuclei count vs DMSO), 5 days (fraction); higher = more cells survive
NCI-H2009 = tested on: NCI-H2009
Summary of the method: (§1)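 Lung cancer cell lines, seeded in 1536-well plates, were treated the following day by pin tool with a single drug or with five library-drug doses (not always all listed) in √10 steps on top of a fixed anchor-drug dose. Cells were fixed and nuclei stained in one step after 5 days, and nuclei were counted. Relative viability is the nuclei count for treated wells divided by that for vehicle wells, reported as medians of duplicate plates.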

UMC-11 = tested on: UMC-11
Summary of the method: as §1

PC-14 = tested on: PC-14
Summary of the method: as §1

NCI-H1395 = tested on: NCI-H1395
Summary of the method: as §1

NCI-H596 = tested on: NCI-H596
Summary of the method: as §1

NCI-H1755 = tested on: NCI-H1755
Summary of the method: as §1

HCC-827 = tested on: HCC-827
Summary of the method: as §1

NCI-H2170 = tested on: NCI-H2170
Summary of the method: as §1

NCI-H1650 = tested on: NCI-H1650
Summary of the method: as §1

LCLC-97TM1 = tested on: LCLC-97TM1
Summary of the method: as §1

HCC-78 = tested on: HCC-78
Summary of the method: as §1

SK-LU-1 = tested on: SK-LU-1
Summary of the method: as §1

NCI-H727 = tested on: NCI-H727
Summary of the method: as §1

NCI-H2023 = tested on: NCI-H2023
Summary of the method: as §1

BEN = tested on: BEN
Summary of the method: as §1

EKVX = tested on: EKVX
Summary of the method: as §1

LK-2 = tested on: LK-2
Summary of the method: as §1

EMC-BAC-2 = tested on: EMC-BAC-2
Summary of the method: as §1

ABC-1 = tested on: ABC-1
Summary of the method: as §1

CAL-12T = tested on: CAL-12T
Summary of the method: as §1

NCI-H1437 = tested on: NCI-H1437
Summary of the method: as §1

LOU-NH91 = tested on: LOU-NH91
Summary of the method: as §1

EPLC-272H = tested on: EPLC-272H
Summary of the method: as §1

Question: Which relative viability (NCI-H2009; first compound 0.253 µM) does the source give for Nc1cccc2c1CN(C1CCC(=O)NC1=O)C2=O (stereo unspecified) [Lenalidomide] + CS(=O)(=O)N1CCN(Cc2cc3nc(-c4cccc5[nH]ncc45)nc(N4CCOCC4)c3s2)CC1 [Pictilisib] (partner 1 µM) here?
Answer: Its relative viability is 0.852.

Question: And the relative viability (NCI-H2009; first compound 0.8 µM)?
Answer: Its relative viability is 1.01.

Question: And the relative viability (NCI-H2009; first compound 2.53 µM)?
Answer: Its relative viability is 0.941.

Question: What about the relative viability (NCI-H2009; first compound 8 µM) of the same compound?
Answer: The relative viability was 0.768.

Question: And the relative viability (UMC-11; first compound 0.253 µM)?
Answer: Its relative viability is 0.893.

Question: What about the relative viability (UMC-11; first compound 0.8 µM) of the same compound?
Answer: Its relative viability is 0.512.

Question: And the relative viability (UMC-11; first compound 2.53 µM)?
Answer: Its relative viability is 0.819.

Question: What about the relative viability (UMC-11; first compound 8 µM) of the same compound?
Answer: Its relative viability is 0.627.

Question: And the relative viability (PC-14; first compound 0.253 µM)?
Answer: The relative viability was 0.691.

Question: And the relative viability (PC-14; first compound 0.8 µM)?
Answer: The relative viability was 0.618.

Question: And the relative viability (PC-14; first compound 2.53 µM)?
Answer: Its relative viability is 0.719.

Question: And the relative viability (PC-14; first compound 8 µM)?
Answer: Its relative viability is 0.713.

Question: And the relative viability (NCI-H1395; first compound 0.253 µM)?
Answer: Its relative viability is 0.682.

Question: And the relative viability (NCI-H1395; first compound 2.53 µM)?
Answer: The relative viability was 0.647.

Question: What about the relative viability (NCI-H1395; first compound 8 µM) of the same compound?
Answer: Its relative viability is 0.569.

Question: And the relative viability (NCI-H596; first compound 0.253 µM)?
Answer: The relative viability was 0.382.

Question: What about the relative viability (NCI-H596; first compound 0.8 µM) of the same compound?
Answer: Its relative viability is 0.359.

Question: What about the relative viability (NCI-H596; first compound 2.53 µM) of the same compound?
Answer: The relative viability was 0.381.

Question: And the relative viability (NCI-H596; first compound 8 µM)?
Answer: Its relative viability is 0.365.

Question: What about the relative viability (NCI-H1755; first compound 0.253 µM) of the same compound?
Answer: The relative viability was 0.407.

Question: And the relative viability (NCI-H1755; first compound 0.8 µM)?
Answer: Its relative viability is 0.322.

Question: And the relative viability (NCI-H1755; first compound 2.53 µM)?
Answer: The relative viability was 0.521.

Question: And the relative viability (NCI-H1755; first compound 8 µM)?
Answer: Its relative viability is 0.325.

Question: And the relative viability (HCC-827; first compound 0.253 µM)?
Answer: Its relative viability is 1.03.

Question: And the relative viability (HCC-827; first compound 0.8 µM)?
Answer: Its relative viability is 1.11.

Question: And the relative viability (HCC-827; first compound 2.53 µM)?
Answer: Its relative viability is 0.925.

Question: And the relative viability (HCC-827; first compound 8 µM)?
Answer: Its relative viability is 0.834.

Question: What about the relative viability (NCI-H2170; first compound 0.253 µM) of the same compound?
Answer: The relative viability was 0.344.

Question: And the relative viability (NCI-H2170; first compound 0.8 µM)?
Answer: Its relative viability is 0.264.

Question: What about the relative viability (NCI-H2170; first compound 2.53 µM) of the same compound?
Answer: The relative viability was 0.342.

Question: And the relative viability (NCI-H2170; first compound 8 µM)?
Answer: Its relative viability is 0.259.

Question: What about the relative viability (NCI-H1650; first compound 0.253 µM) of the same compound?
Answer: Its relative viability is 0.562.

Question: What about the relative viability (NCI-H1650; first compound 0.8 µM) of the same compound?
Answer: Its relative viability is 0.441.

Question: And the relative viability (NCI-H1650; first compound 2.53 µM)?
Answer: The relative viability was 0.731.

Question: What about the relative viability (NCI-H1650; first compound 8 µM) of the same compound?
Answer: Its relative viability is 0.637.

Question: What about the relative viability (LCLC-97TM1; first compound 0.8 µM) of the same compound?
Answer: The relative viability was 0.182.

Question: And the relative viability (LCLC-97TM1; first compound 2.53 µM)?
Answer: Its relative viability is 0.261.

Question: What about the relative viability (LCLC-97TM1; first compound 8 µM) of the same compound?
Answer: Its relative viability is 0.165.

Question: And the relative viability (HCC-78; first compound 0.253 µM)?
Answer: Its relative viability is 0.233.

Question: What about the relative viability (HCC-78; first compound 0.8 µM) of the same compound?
Answer: Its relative viability is 0.185.

Question: And the relative viability (HCC-78; first compound 2.53 µM)?
Answer: The relative viability was 0.232.

Question: What about the relative viability (HCC-78; first compound 8 µM) of the same compound?
Answer: The relative viability was 0.174.

Question: What about the relative viability (SK-LU-1; first compound 0.253 µM) of the same compound?
Answer: Its relative viability is 0.602.

Question: What about the relative viability (SK-LU-1; first compound 0.8 µM) of the same compound?
Answer: Its relative viability is 0.58.

Question: What about the relative viability (SK-LU-1; first compound 2.53 µM) of the same compound?
Answer: Its relative viability is 0.704.

Question: What about the relative viability (SK-LU-1; first compound 8 µM) of the same compound?
Answer: The relative viability was 0.502.

Question: What about the relative viability (NCI-H727; first compound 0.253 µM) of the same compound?
Answer: The relative viability was 0.418.

Question: And the relative viability (NCI-H727; first compound 2.53 µM)?
Answer: The relative viability was 0.44.

Question: What about the relative viability (NCI-H727; first compound 8 µM) of the same compound?
Answer: The relative viability was 0.306.

Question: And the relative viability (NCI-H2023; first compound 0.253 µM)?
Answer: The relative viability was 0.254.

Question: What about the relative viability (NCI-H2023; first compound 0.8 µM) of the same compound?
Answer: The relative viability was 0.176.

Question: What about the relative viability (NCI-H2023; first compound 2.53 µM) of the same compound?
Answer: Its relative viability is 0.268.

Question: And the relative viability (NCI-H2023; first compound 8 µM)?
Answer: Its relative viability is 0.187.

Question: And the relative viability (BEN; first compound 0.253 µM)?
Answer: The relative viability was 0.69.

Question: And the relative viability (BEN; first compound 0.8 µM)?
Answer: The relative viability was 0.504.

Question: And the relative viability (BEN; first compound 2.53 µM)?
Answer: The relative viability was 0.644.

Question: And the relative viability (BEN; first compound 8 µM)?
Answer: Its relative viability is 0.436.

Question: And the relative viability (EKVX; first compound 0.253 µM)?
Answer: Its relative viability is 0.456.

Question: And the relative viability (EKVX; first compound 0.8 µM)?
Answer: Its relative viability is 0.39.

Question: What about the relative viability (EKVX; first compound 2.53 µM) of the same compound?
Answer: Its relative viability is 0.401.

Question: And the relative viability (EKVX; first compound 8 µM)?
Answer: Its relative viability is 0.366.

Question: And the relative viability (LK-2; first compound 0.253 µM)?
Answer: Its relative viability is 0.602.

Question: What about the relative viability (LK-2; first compound 2.53 µM) of the same compound?
Answer: The relative viability was 0.599.

Question: And the relative viability (LK-2; first compound 8 µM)?
Answer: Its relative viability is 0.538.

Question: What about the relative viability (EMC-BAC-2; first compound 0.253 µM) of the same compound?
Answer: The relative viability was 0.532.

Question: And the relative viability (EMC-BAC-2; first compound 0.8 µM)?
Answer: Its relative viability is 0.474.

Question: And the relative viability (EMC-BAC-2; first compound 2.53 µM)?
Answer: Its relative viability is 0.535.

Question: What about the relative viability (EMC-BAC-2; first compound 8 µM) of the same compound?
Answer: Its relative viability is 0.411.

Question: What about the relative viability (ABC-1; first compound 0.253 µM) of the same compound?
Answer: Its relative viability is 0.724.

Question: And the relative viability (ABC-1; first compound 0.8 µM)?
Answer: Its relative viability is 0.626.

Question: And the relative viability (ABC-1; first compound 2.53 µM)?
Answer: Its relative viability is 0.719.

Question: What about the relative viability (ABC-1; first compound 8 µM) of the same compound?
Answer: Its relative viability is 0.629.

Question: What about the relative viability (CAL-12T; first compound 0.253 µM) of the same compound?
Answer: The relative viability was 0.406.

Question: And the relative viability (CAL-12T; first compound 2.53 µM)?
Answer: Its relative viability is 0.561.

Question: And the relative viability (CAL-12T; first compound 8 µM)?
Answer: Its relative viability is 0.358.

Question: And the relative viability (NCI-H1437; first compound 0.253 µM)?
Answer: The relative viability was 0.547.

Question: And the relative viability (NCI-H1437; first compound 0.8 µM)?
Answer: The relative viability was 0.591.

Question: And the relative viability (NCI-H1437; first compound 2.53 µM)?
Answer: Its relative viability is 0.592.

Question: And the relative viability (NCI-H1437; first compound 8 µM)?
Answer: The relative viability was 0.344.

Question: What about the relative viability (LOU-NH91; first compound 0.253 µM) of the same compound?
Answer: Its relative viability is 0.534.

Question: What about the relative viability (LOU-NH91; first compound 0.8 µM) of the same compound?
Answer: The relative viability was 0.451.

Question: What about the relative viability (LOU-NH91; first compound 2.53 µM) of the same compound?
Answer: Its relative viability is 0.445.

Question: And the relative viability (LOU-NH91; first compound 8 µM)?
Answer: Its relative viability is 0.502.

Question: And the relative viability (EPLC-272H; first compound 0.253 µM)?
Answer: The relative viability was 0.325.

Question: What about the relative viability (EPLC-272H; first compound 2.53 µM) of the same compound?
Answer: The relative viability was 0.361.

Question: And the relative viability (EPLC-272H; first compound 8 µM)?
Answer: The relative viability was 0.274.
